Publication PMC13305993, “Bioassay-Guided Phytochemical Investigation of Vietnamese Vitex rotundifolia Leaves and the Liverwort Ptychanthus striatus as Sources of SARS-CoV-2 Main Protease Inhibitors” (Molecules, 2026)

Molecular target: SARS-CoV-2 Mpro (Severe acute respiratory syndrome coronavirus 2, UniProt P0DTD1)
Assay: biochemical
Conditions: isolated compounds at 100 µg/mL; triplicate, mean (Figure 3)

C=C(C)[C@@H]1CC[C@]2(C(=O)O)CC[C@]3(C)[C@H](CC[C@@H]4[C@@]5(C)CC[C@H](O)C(C)(C)[C@@H]5CC[C@]43C)[C@@H]12 [V10, betulinic acid]
inhibition at 100 µg/mL: 0%
